Patent publication US12428394B2, “2,4-disubstituted pyrimidine derivative, preparation method therefor and use thereof” (CHENGDU ZENITAR BIOMEDICAL TECHNOLOGY CO., LTD., priority 2019, dated 2025)

Assays:
[1] = system: JAK2/FLT3 signaling pathway related proteins; assay: Immunoblot experiment on JAK2/FLT3 signaling pathway related proteins in MV4-11 and SET-2 cells; format: cell-based; details: different concentrations
Description: The cells were subjected to SDS-PAGE gel electrophoresis with 8%-16% gradient gels, and constant flow membrane was carried out. The cells were blocked with 5% skim milk, and the primary antibody FLT3 (CST, 3462S), […] (CST, 3464S), STAT5 (CST, 9363S), […] (Abcam, ab32364), JAK2 (Proteintech, 02802), p-JAK2 (Abcam, ab32101), JAK1 (Santa Cruz Biotechnology, sc-136225), […] (Santa Cruz Biotechnology, sc-101716), GAPDH (Abways, AB0037), Rb (Abways, CY5661), […] (Abways, CY5260) was incubated. The next day, the cells were washed with PBS/T for three times, horseradish enzyme-labeled goat anti-mouse second antibody (Abways, AB0102) and horseradish enzyme-labeled goat anti-rabbit second antibody (Abways, AB0101) were incubated at room temperature, then the cells were washed with PBS/T for three times, and developed by the addition of the ECL chemiluminescent substrate.

JAK3 = target: T1, JAK3 (Homo sapiens, UniProt P52333); assay: In vitro kinase activity experiment, JAK3; format: biochemical
T1 construct: purchased Eurofins
T1 sequence (P52333 1-1124): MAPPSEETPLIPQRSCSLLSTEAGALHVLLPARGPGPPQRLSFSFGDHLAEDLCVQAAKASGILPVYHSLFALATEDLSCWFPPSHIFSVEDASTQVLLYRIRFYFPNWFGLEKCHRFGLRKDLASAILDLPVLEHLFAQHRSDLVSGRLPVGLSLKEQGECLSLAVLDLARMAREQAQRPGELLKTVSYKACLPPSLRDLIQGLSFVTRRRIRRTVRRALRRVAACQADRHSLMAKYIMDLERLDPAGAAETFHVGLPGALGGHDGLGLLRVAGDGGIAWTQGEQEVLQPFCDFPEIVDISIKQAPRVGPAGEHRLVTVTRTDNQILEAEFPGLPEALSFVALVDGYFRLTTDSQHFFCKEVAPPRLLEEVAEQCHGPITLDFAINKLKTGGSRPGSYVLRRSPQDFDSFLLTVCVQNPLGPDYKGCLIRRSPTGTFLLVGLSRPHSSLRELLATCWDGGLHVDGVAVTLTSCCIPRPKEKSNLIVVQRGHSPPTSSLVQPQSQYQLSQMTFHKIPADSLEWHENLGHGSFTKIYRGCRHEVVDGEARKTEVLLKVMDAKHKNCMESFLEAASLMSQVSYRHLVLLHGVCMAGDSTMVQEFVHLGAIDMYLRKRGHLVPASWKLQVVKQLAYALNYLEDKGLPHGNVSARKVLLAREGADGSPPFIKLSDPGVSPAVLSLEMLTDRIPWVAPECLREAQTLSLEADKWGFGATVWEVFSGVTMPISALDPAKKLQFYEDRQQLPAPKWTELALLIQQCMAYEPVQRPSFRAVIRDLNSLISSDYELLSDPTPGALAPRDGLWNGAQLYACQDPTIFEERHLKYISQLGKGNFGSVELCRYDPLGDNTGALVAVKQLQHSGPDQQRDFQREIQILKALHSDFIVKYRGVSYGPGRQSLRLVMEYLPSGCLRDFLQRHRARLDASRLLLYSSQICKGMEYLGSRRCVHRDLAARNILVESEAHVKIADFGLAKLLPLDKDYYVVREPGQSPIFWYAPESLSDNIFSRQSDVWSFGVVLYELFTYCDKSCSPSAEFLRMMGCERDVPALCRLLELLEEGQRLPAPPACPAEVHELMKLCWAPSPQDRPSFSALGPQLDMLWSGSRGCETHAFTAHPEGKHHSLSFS
Description: (§1) Buffer solution ([…], pH 7.0, 0.2 mm EDTA, 10 mM mncl2), kinase to be tested, substrate of kinase to be tested, 10 mM magnesium acetate and γ33P-ATP solution, and compounds with different concentrations were added to a reaction tube in turn, then MgATP was added to initiate the enzyme reaction process, and incubated at room temperature for 40 min. Then, the reaction was terminated with 5 μl of […], and 10 μl of the reaction solution was titrated onto the Filtermat A membrane, washed with 75 mM phosphate solution for three times, each time for 5 min., and then washed with methanol once. Finally, the Filtermat A membrane was dried and the scintillation count was carried out.

JAK1 = target: T2, JAK1 (Homo sapiens, UniProt P23458); assay: In vitro kinase activity experiment, JAK1; format: biochemical
T2 construct: purchased Eurofins
Description: as §1

JAK2 = target: T3, JAK2 (Homo sapiens, UniProt O60674); assay: In vitro kinase activity experiment, JAK2; format: biochemical; details: inhibition rate of enzyme at 500 nM; measured by Eurofins
T3 construct: purchased Eurofins
Summary of the method: (§2)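 Radiometric filter-binding assay: kinase, its substrate and compound in 8 mM MOPS pH 7.0, 0.2 mM EDTA, 10 mM MnCl2, with 10 mM magnesium acetate and γ33P-ATP; MgATP started the reaction, 40 min at room temperature. Stopped with 3% phosphate, spotted on Filtermat A, washed, scintillation counted.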

FLT3 = target: T4, FLT3 (Homo sapiens, UniProt P36888); assay: In vitro kinase activity experiment, FLT3; format: biochemical
T4 construct: purchased Eurofins
T4 sequence (P36888 27-993): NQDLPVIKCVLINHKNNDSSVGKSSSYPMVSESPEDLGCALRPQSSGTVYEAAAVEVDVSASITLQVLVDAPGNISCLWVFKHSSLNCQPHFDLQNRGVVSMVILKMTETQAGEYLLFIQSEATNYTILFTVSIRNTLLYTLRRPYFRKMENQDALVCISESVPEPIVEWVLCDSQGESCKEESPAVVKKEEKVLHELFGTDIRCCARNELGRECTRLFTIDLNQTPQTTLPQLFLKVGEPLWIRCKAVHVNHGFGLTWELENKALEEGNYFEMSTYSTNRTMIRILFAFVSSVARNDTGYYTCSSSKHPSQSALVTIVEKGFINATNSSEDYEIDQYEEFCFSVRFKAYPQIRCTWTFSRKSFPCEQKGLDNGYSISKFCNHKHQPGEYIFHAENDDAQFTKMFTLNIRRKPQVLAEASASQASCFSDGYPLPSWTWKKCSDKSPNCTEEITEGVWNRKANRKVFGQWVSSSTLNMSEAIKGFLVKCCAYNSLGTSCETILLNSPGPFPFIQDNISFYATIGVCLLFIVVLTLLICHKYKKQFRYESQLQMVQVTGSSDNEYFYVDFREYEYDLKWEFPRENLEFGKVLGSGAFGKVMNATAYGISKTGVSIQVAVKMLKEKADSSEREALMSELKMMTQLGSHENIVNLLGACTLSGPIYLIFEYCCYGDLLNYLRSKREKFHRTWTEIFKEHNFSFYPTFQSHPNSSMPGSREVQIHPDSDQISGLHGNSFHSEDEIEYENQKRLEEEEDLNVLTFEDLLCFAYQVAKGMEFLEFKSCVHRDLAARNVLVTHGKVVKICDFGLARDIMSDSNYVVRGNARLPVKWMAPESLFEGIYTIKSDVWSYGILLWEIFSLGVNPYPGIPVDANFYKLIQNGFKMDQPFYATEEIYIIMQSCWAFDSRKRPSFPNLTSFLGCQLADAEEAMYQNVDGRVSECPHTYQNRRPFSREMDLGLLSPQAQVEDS
Summary of the method: as §2

T2 sequence (P23458 whole entry): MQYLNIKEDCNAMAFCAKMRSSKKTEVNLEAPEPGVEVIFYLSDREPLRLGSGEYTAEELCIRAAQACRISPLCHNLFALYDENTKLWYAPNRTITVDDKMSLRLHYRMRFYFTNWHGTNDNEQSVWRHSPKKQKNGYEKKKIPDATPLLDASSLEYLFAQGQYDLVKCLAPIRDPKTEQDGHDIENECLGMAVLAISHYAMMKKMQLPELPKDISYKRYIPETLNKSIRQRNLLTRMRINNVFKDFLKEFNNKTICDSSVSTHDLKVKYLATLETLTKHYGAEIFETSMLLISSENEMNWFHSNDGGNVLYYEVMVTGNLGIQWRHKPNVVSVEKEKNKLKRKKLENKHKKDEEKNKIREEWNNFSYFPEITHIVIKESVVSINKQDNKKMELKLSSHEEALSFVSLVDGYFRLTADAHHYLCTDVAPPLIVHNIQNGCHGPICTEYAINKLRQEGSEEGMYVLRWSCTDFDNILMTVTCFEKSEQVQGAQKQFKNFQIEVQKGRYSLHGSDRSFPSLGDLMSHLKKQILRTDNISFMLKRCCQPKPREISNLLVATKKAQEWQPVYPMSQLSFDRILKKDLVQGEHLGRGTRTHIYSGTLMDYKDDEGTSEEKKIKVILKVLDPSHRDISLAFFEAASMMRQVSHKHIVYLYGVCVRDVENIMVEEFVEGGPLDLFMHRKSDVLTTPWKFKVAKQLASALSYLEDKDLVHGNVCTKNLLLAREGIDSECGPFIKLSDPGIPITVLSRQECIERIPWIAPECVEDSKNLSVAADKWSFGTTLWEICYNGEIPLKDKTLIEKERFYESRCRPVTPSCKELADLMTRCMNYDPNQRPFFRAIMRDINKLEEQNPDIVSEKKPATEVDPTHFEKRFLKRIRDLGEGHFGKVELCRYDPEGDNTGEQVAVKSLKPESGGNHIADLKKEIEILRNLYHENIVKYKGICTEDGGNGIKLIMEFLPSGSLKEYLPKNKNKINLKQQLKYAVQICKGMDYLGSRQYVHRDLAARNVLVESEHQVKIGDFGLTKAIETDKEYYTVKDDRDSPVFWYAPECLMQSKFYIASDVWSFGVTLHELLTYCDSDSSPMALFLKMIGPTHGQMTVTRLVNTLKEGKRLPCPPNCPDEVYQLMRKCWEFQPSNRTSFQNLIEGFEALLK
T3 sequence (O60674 whole entry): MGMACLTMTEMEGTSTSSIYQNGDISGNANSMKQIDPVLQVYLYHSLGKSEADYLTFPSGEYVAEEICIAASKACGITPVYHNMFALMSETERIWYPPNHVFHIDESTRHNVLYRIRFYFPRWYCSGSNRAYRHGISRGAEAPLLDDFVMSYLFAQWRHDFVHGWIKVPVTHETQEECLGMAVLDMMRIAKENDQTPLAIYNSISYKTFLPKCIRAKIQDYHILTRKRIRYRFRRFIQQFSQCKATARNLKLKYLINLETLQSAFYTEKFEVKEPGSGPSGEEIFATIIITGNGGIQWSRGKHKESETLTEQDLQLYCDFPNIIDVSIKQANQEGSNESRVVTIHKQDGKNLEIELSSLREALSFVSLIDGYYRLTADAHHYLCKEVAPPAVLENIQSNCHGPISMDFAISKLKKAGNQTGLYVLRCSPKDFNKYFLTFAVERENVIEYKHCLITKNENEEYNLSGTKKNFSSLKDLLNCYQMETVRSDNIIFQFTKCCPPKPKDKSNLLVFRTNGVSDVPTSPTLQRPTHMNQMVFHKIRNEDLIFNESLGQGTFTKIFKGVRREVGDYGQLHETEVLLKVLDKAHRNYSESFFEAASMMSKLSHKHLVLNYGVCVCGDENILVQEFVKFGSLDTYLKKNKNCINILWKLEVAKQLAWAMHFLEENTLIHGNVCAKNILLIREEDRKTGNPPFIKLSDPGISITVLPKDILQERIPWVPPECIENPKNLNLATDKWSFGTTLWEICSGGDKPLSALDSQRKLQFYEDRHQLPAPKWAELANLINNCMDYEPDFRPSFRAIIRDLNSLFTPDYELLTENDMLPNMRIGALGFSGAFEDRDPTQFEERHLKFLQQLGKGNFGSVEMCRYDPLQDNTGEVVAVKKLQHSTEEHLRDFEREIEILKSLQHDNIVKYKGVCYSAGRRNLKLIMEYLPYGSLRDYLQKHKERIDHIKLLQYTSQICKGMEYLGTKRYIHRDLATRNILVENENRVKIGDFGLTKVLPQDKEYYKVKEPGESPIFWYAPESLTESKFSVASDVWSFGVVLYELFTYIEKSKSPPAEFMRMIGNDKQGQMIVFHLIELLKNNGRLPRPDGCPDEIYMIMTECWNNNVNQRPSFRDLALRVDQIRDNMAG

SMILES: Cc1cnc(Nc2ccc(N3CCC(N(C)CCO)CC3)c(F)c2)nc1-c1cnn(C(C)C)c1 [CLJ-44, 5-methyl-N-(3-fluoro-4-(4-N-hydroxyethyl-4-N-methylaminopiperidine-1-yl)phenyl)-4-(1-isopropyl-1H-pyrazole-4-yl) pyrimidine-2-amine]
- autophosphorylation of JAK2/FLT3 (immunoblot) [1]: significantly inhibited the autophosphorylation of JAK2/FLT3 in a dose-dependent relationship
- effect on JAK subtype JAK1 (immunoblot) [1]: weak effect
- IC50 (JAK3): 46 nM
- IC50 (JAK1): 37 nM
- Kinase activity @ 500 nM (%) JAK2 (JAK2): 100%
- IC50 (FLT3): 4 nM
- inhibition at 0.5 µM (FLT3; 40 min, read-out: Kinase activity @ 500 nM (%) FLT3): 99%
